Test: Pharmacokinetics after duodenal injection of unformulated or formulated Dmt-DALDA in anesthetized rats (plasma, HPLC-UV)
Type: in vivo
Conditions: rats, formulated solution containing citric acid and lauroyl carnitine
Description: In the experiments represented in the subject Figure, six anesthetized rats (which were color-coded as: red, white, blue, orange, green and yellow) were given 0.7 mL Dmt-DALDA (1.6 mg/mL) with a syringe through a 27 gauge needle into the duodenum. This injection procedure was followed due to the technical difficulty inherent in preparing capsules which can be swallowed by small animals the size of a rat. The intraduodanal injection, therefore, mimics the release of the components of an enteric-coated capsule formulation which would pass through the esophagus and stomach and release its contents in the duodenum. Three of the rats (red, white and blue) were given Unformulated Dmt-DALDA in which there were no additional components (i.e., other than the Dmt-DALDA), while the other three rats (orange, green and yellow) were given Formulated Dmt-DALDA which included, in addition to the Dmt-DALDA, 0.5M citric acid and lauroyl carnitine (10 mg/ml). Samples of blood were taken from the carotid artery through an indwelling catheter before and 5, 15, 30, 60 and 120 minutes after the administration of the respective formulations (i.e., Formulated and Unformulated). The blood samples were centrifuged and the resulting plasma supernatants were stored frozen at −20° C. […] Peptide was detected with an ultraviolet (UV) detector set at a wavelength of 210 nm. […] Table I, moreover, provides the standard deviations for the data obtained regarding each of the test rats, which standard deviations are also indicated in FIG. 1.
Table II (below) summarizes the pharmacokinetic parameters in rats of orally administered unformulated and formulated Dmt-DALDA as those terms are defined above. Cmax refers to the maximum concentration of peptide detected in the rat plasma. The area under the curve (AUC) is a measure of the extent of peptide absorption and is calculated by the trapezoidal rule from a plot of peptide concentration as a function of time. Tmax indicates when the maximum concentration of the Dmt-DALDA in the blood serum was obtained.

SMILES: Cc1cc(O)cc(C)c1C[C@H](N)C(=O)N[C@H](CCCNC(=N)N)C(=O)N[C@@H](Cc1ccccc1)C(=O)N[C@@H](CCCCN)C(N)=O [Dmt-DALDA, H-2,6-dimethyltyrosine-D-Arginine-Phenylalanine-Lysine-NH2]
- Cmax and AUC, formulated solution vs unformulated: significantly enhanced

Reference: patent publication US8835377B2, “Oral delivery of peptide pharmaceutical compositions” (UGP Therapeutics, Inc., priority 2004, dated 2014)
